Measurements taken from patent publication US20080293699A1, “Inhibitors of thapsigargin-induced cell death” (priority 2007, published 2008).
“Also recorded” adds a separate entry of the source.

Assays:
[1] = system: differentiated CSM14.1 cells; test: ATP content assay, thapsigargin-treated differentiated CSM14.1 cells; assay type: cell-based, rat
Description: Of the 26 compounds shown in Table 9, 16 were subsequently confirmed to protect differentiated CSM14.1 cells from TG-induced cell death. For these assays, CSM14.1 cells were differentiated by culture in 2% FBS for 7 days at non-permissive temperature of 39° C. […] CSM14.1 cells were plated at 1,500 cells per well in 96-well plates, and cultured overnight at 32° C. (permissive temperature; FIG. 14, left) or at 39° C. (non-permissive temperature, FIG. 14, right) for 7 days. […] ATP content was measured, and data were expressed as a percentage of control cells treated only with 1% DMSO (mean ±SD; n=3). Two percent FBS was used during differentiation, but all assays were performed in 10% FBS.
(§1) For PC12, cells were stimulated with 20 ng/ml NGF for five days; for C17.2, cells were stimulated with serum reduction, and 1% N2 incubation for three days; for CSM14.1, cells were cultured at 39° C. for 5-7 days.
CSM14.1 cells were plated at 1,500 cells per well in 96-well plates and cultured at 39° C. (non-permissive temperature) for 7 days. […] ATP content was measured and data were expressed as a percentage of control cells treated with only 1% DMSO.

[2] = system: ASK1 binding to 14-3-3 protein; test: Co-immunoprecipitation of ASK1 with 14-3-3 in transfected 293T cells; assay type: cell-based; conditions: thapsigargin-stimulated transfected 293T; 100 μM where stated
Description: Phosphorylation of ASK1 at various sites was inspected. 293T cells were transfected with pcDNA-ASK1-HA. One day later, cells were incubated with DMSO (0.4%) or 100 μM compound 6239507 (#1) for two hours. Cell extracts were prepared using lysis buffer and were subjected to immunoblotting using anti-phospho ASK1 antibodies or anti HA antibody as indicated (A). The relative density of each phosphorylated ASK band was calculated by imageJ software (B). In (C), compounds from (A) were compared in activity against thapsigargin-induced cell death. […] (D) 293T cells were transfected with pcDNA-ASK1-HA and pEBG-GST-14-3-3. One day later cells were incubated with DMSO (0.4%) or 100 μM of the indicated compound for two hours. Then cells were treated with thapsigargin (20 μM) for the indicated time. Cell extracts were prepared using lysis buffer, and 14-3-3 proteins were immunoprecipitated with […] sepharose beads. ASK1 protein binding with 14-3-3 was visualized by immunoblotting using anti-HA antibody. Anti-phospho ASK1 (ser967) antibody was used to detect phosphorylation of ASK1 at each time point. […]
The ser 967 site of ASK1 is known to down-regulate ASK1 activity by phosphorylation (Goldman et al., J. Biol. Chem. 279:10442-10449, 2004) via 14-3-3 binding. […] The relative density of each phosphorylated ASK band was calculated by imageJ software. […]

Jurkat human T-leukemia = test: Thapsigargin-induced death of Jurkat cells, ATP content assay; assay type: cell-based; conditions: 25 μM
Description: To explore whether compounds broadly protect cells of various lineages versus only neuronal cells, we tested all 26 hits for ability to rescue CSM14.1 (neuronal), and Jurkat (lymphoid), cell lines from cell death induced by TG. […] CSM 14.1 (FIG. 15, left) and Jurkat cells (FIG. 15, right) were cultured overnight at 3,000 cells per well or at 30,000 cells per well, respectively, in 96-well plates. Wells received DMSO alone or 25 μM compounds in DMSO, followed by treatment with or without TG (15 μM). After culturing for 24 hrs, ATP content was determined, expressing data as a percentage control relative to cells treated only with DMSO (mean ±SD; n=3). The data reveal that one of the compounds protects CSM14.1 but not Jurkat cells from TG-induced cell death (as measured by the ATPlite assay). […]
In addition to CSM14.1 cells, when tested at 25 μM, Compound 5962123 protected by >50% against thapsigargin-induced death of several tumor cell lines (HeLa human cervical cancer, SW1 melanoma cell, PPC1, human prostate cancer), mouse neural stem cell C17.2 (both differentiated [neuronal phenotype] and non-differentiated [stem cell phenotype]) as determined by ATP content assay, and primary rat cortical neurons as determined by microscopy assay measuring the percentage of NeuN-immunopositive cells with either normal or apoptotic nuclear morphology (Hoechst dye staining). […]

SW1 melanoma cell = test: Thapsigargin-induced death of SW1 cells, ATP content assay; assay type: cell-based, human
Description: (§2) In addition to CSM14.1 cells, when tested at 25 μM, Compound 5962123 protected by >50% against thapsigargin-induced death of several tumor cell lines (HeLa human cervical cancer, SW1 melanoma cell, PPC1, human prostate cancer), mouse neural stem cell C17.2 (both differentiated [neuronal phenotype] and non-differentiated [stem cell phenotype]) as determined by ATP content assay, and primary rat cortical neurons as determined by microscopy assay measuring the percentage of NeuN-immunopositive cells with either normal or apoptotic nuclear morphology (Hoechst dye staining).
as §1

[3] = system: HeLa human cervical cancer; test: Thapsigargin-induced death of HeLa cells, ATP content assay; assay type: cell-based
Description: as §2, §1

[4] = thapsigargin 15 μM, ATP content, compound ≦25 μM

Row | Structure (SMILES) | Protection of differentiated CSM14.1 cells from thapsigargin-induced death ([1]; compound 25 μM with 10 μM thapsigargin, Salubrinal 100 μM) | Cytoprotective activity, CSM 14.1 diff (Result) ([1]; thapsigargin 15 μM, compound ≦25 μM) | Binding of ASK1 to 14-3-3 protein [2] | Protection of Jurkat cells from thapsigargin-induced cell death (Jurkat human T-leukemia) | Protection against thapsigargin-induced death, SW1 (SW1 melanoma cell; 25 μM, ATP content assay) [%] | Cytoprotective activity in thapsigargin-treated SW1 (SW1 melanoma cell; ATP content assay) | Cytoprotective activity, SW1 (Result) (SW1 melanoma cell; [4]) | Protection against thapsigargin-induced death, HeLa ([3]; 25 μM, ATP content assay) [%] | Cytoprotective activity in thapsigargin-treated HeLa ([3]; ATP content assay) | Cytoprotective activity, HeLa (Result) [3, 4]
1 | CCN(CC)c1ccc(C2Nc3ccccc3NC3=C2C(=O)CC(c2ccccc2)C3)cc1 (centres unmarked) [Compound 5962123, 6-(4-diethylaminophenyl)-9-phenyl-5,6,8,9,10,11-hexahydrobenzo[c][1,5]benzodiazepin-7-one] | confirmed | + (+indicates >50% rescue of cell viability relative to untreated cells not exposed to thapsigargin at compound concentration of ≦25 μM) | increased 14-3-3 binding to ASK1; also recorded: increases binding | does not protect; also recorded: inactive | > 50 | demonstrated | + (+indicates >50% rescue of cell viability relative to untreated cells not exposed to thapsigargin at compound concentration of ≦25 μM) | > 50 | demonstrated | + (+indicates >50% rescue of cell viability relative to untreated cells not exposed to thapsigargin at compound concentration of ≦25 μM)
2 | COc1ccc(C2CC(=O)C3=C(C2)Nc2ccccc2NC3c2cccc(Oc3ccccc3)c2)cc1OC (centres unmarked) [Compound 6239507] |  |  | inhibits dissociation of 14-3-3 from ASK1 |  |  |  |  |  |  | 
